Assay results published in paper PMC11266932, “Enhanced absorption of prenylated cinnamic acid derivatives from Brazilian green propolis by turmeric in humans and rats” (Food Science & Nutrition, 2024).
Read-outs that look alike come from different tables or passages of the source.

Experiment: Clinical trial: plasma concentration and AUC of cinnamic acid derivatives after ingestion of BGP alone or BGP plus herbal extract mixture
Type: in vivo
Settings: humans, BGP and herbal extracts co-administered; for fold increase of AUC versus BGP administered alone: 0–24 h; for AUC: plasma 0–24 h, after enzymatic deconjugation, mean ± SD, n = 6
Experimental: Six volunteers (three males and three females) completely understood the study protocol and consented to participate in the research. The following exclusion criteria were used for shortlisting participants: past or present medical history (asthma, significant allergies, heart, liver, kidney, and urinary tract disease); prescribed medication; pregnancy; smoking (>20 cigarettes/day); alcohol consumption (>500 mL/day of beer); use of dietary supplements and healthy foods; and participation in other clinical trials. The participants were instructed to refrain from consuming propolis and propolis‐containing foods and beverages during the study period and 1 week prior to the start of the study. After a 12‐h fast, the participants were given a test food comprising the encapsulated BGP powder or a mixture of the BGP powder and herbal extracts in two experimental periods separated by 1 week. […] The collected samples were centrifuged at 1500 g for 3 min at 23 ± 2°C to separate the plasma, which was subsequently preserved at −80°C until further sample preparation.
Briefly, 50 μL of plasma was treated with a sulfatase/β‐glucuronidase solution (sulfatase 15 units/sample) in 100 mM sodium acetate and 5 mM ascorbate at 37°C for 1 h. Following the incubation, 850 μL of methanol was added to the samples to stop the deconjugation reaction, after which centrifugation was performed at 2000 g for 10 min at 23 ± 2°C. The supernatant was evaporated under nitrogen gas and then reconstituted in a fixed volume of methanol. The samples were filtered through a 0.22 μm PTFE membrane and then analyzed by LC–MS/MS.
Briefly, 5 μL of the sample was injected into a reversed‐phase column (Acquity UPLC BEH C18, 2.1 × 100 mm, ID. 1.7 μm; Waters, Milford, MA, USA) held at 30°C. The elution was performed using solvent A (0.1% formic acid) and solvent B (acetonitrile) at a flow rate of 0.3 mL/min. The gradient profiles were as follows: 5% B (0–2 min), 5–95% B (2–22 min), 95% B (22–25 min), and 5% B (25–30 min). Tandem mass spectrometry (MS/MS) was conducted using an ion trap mass spectrometer with a heated electrospray ion source (HESI) in both positive and negative ionization modes (scan range m/z 70–1000). […] External standard curves for cinnamic acid derivatives were generated using eight concentrations of authentic standard solutions (1, 5, 10, 50, 100, 250, 500, and 1000 ng/mL).
Quantification of cinnamic acid derivatives in the plasma was performed using the Trace Finder software version 4.1 (Thermo Scientific). The plasma concentration versus time data for the analytes obtained from each human and rat were entered into a Microsoft Excel spreadsheet. The area under the plasma concentration–time curve (AUC) was calculated using the linear trapezoidal rule, extending to the last sampling point.

SMILES | fold increase of AUC versus BGP administered alone [fold] | AUC [ng·h/mL] | AUC (both sexes, human, oral, read-out: AUC) [ng·h/mL]
CC(C)=CCc1cc(/C=C/C(=O)O)cc(CC=C(C)C)c1O [artepillin C] | 1.7 | 312.9 ± 91.4 | –
CC(C)=CCc1cc(/C=C/C(=O)O)ccc1O [drupanin] | 1.5 | – | 446 ± 144
